# Laboratory results published in ChEMBL document CHEMBL1201862, “PubChem BioAssay data set” (2004).
#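 Growth conditions: 96-well plates. Treatment: test compound, 48 hours, 5 concentrations. Analysis: linear interpolation between bracketing concentrations; unreached endpoints set to highest concentration. The concentration for 50% growth inhibition is given as GI50.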 Active and inactive are the calls of the source. Rule as the data show it: active = GI50 up to about 1.1 µM and inactive = higher.
# What was measured:
# Assay in all cases: NCI tumour cell line growth inhibition, 48 h
# A498 = system: A498
# A549 = system: A549
# ACHN = system: ACHN
# CAKI-1 = system: CAKI-1
# CCRF-CEM = system: CCRF-CEM
# COLO 205 = system: COLO 205
# DLD-1 = system: DLD-1
# DMS-114 = system: DMS-114
# DMS-273 = system: DMS-273
# EKVX = system: EKVX
# HCC 2998 = system: HCC 2998
# HCT-116 = system: HCT-116
# HCT-15 = system: HCT-15
# HL-60 = system: HL-60
# HOP-62 = system: HOP-62
# HOP-92 = system: HOP-92
# HT-29 = system: HT-29
# IGROV-1 = system: IGROV-1
# K562 = system: K562
# KM-20L2 = system: KM-20L2
# KM12 = system: KM12
# LOX IMVI = system: LOX IMVI
# LXFL 529 = system: LXFL 529
# M14 = system: M14
# M19-MEL = system: M19-MEL
# MOLT-4 = system: MOLT-4
# NCI-H226 = system: NCI-H226
# NCI-H23 = system: NCI-H23
# NCI-H460 = system: NCI-H460
# NCI-H522 = system: NCI-H522
# OVCAR-4 = system: OVCAR-4
# OVCAR-5 = system: OVCAR-5
# OVCAR-8 = system: OVCAR-8
# RPMI-8226 = system: RPMI-8226
# RXF 393 = system: RXF 393
# RXF 631 = system: RXF 631
# SF-268 = system: SF-268
# SF-295 = system: SF-295
# SF-539 = system: SF-539
# SK-MEL-28 = system: SK-MEL-28
# SK-MEL-2 = system: SK-MEL-2
# SK-MEL-5 = system: SK-MEL-5
# SK-OV-3 = system: SK-OV-3
# SN12C = system: SN12C
# SNB-19 = system: SNB-19
# SNB-75 = system: SNB-75
# SNB-78 = system: SNB-78
# SR = system: SR
# SW-620 = system: SW-620
# TK-10 = system: TK-10
# U-251 = system: U-251
# UACC-257 = system: UACC-257
# UACC-62 = system: UACC-62
# UO-31 = system: UO-31
# 786-0 = system: 786-0
# HOP-18 = system: HOP-18
# Malme-3M = system: Malme-3M
# OVCAR-3 = system: OVCAR-3
structure (smiles),measurement,setting,value
O=C(Nc1cccc(O)c1)C(=O)C(C(=O)c1ccccc1F)C1OC(=O)c2ccccc21 (stereo not drawn),GI50,A498,66.5 µM (inactive)
same,GI50,A549,29.4 µM (inactive)
same,GI50,ACHN,37.7 µM (inactive)
same,GI50,CAKI-1,32.9 µM (inactive)
same,GI50,CCRF-CEM,18.3 µM (inactive)
same,GI50,COLO 205,23.2 µM (inactive)
same,GI50,DLD-1,34.2 µM (inactive)
same,GI50,DMS-114,13.8 µM (inactive)
same,GI50,DMS-273,24.2 µM (inactive)
same,GI50,EKVX,34 µM (inactive)
same,GI50,HCC 2998,22.2 µM (inactive)
same,GI50,HCT-116,18 µM (inactive)
same,GI50,HCT-15,18.3 µM
same,GI50,HL-60,28.7 µM (inactive)
same,GI50,HOP-62,29.9 µM (inactive)
same,GI50,HOP-92,68.1 µM (inactive)
same,GI50,HT-29,36.7 µM (inactive)
same,GI50,IGROV-1,38.7 µM (inactive)
same,GI50,K562,37.3 µM (inactive)
same,GI50,KM-20L2,25.7 µM (inactive)
same,GI50,KM12,18.4 µM (inactive)
same,GI50,LOX IMVI,22.9 µM (inactive)
same,GI50,LXFL 529,16.4 µM (inactive)
same,GI50,M14,23.5 µM (inactive)
same,GI50,M19-MEL,18.1 µM (inactive)
same,GI50,MOLT-4,28.6 µM (inactive)
same,GI50,NCI-H226,17.2 µM (inactive)
same,GI50,NCI-H23,27 µM (inactive)
same,GI50,NCI-H460,29.4 µM (inactive)
same,GI50,NCI-H522,17.3 µM (inactive)
same,GI50,OVCAR-4,23.9 µM (inactive)
same,GI50,OVCAR-5,57 µM (inactive)
same,GI50,OVCAR-8,14.6 µM (inactive)
same,GI50,RPMI-8226,23.4 µM (inactive)
same,GI50,RXF 393,18.5 µM (inactive)
same,GI50,RXF 631,21.6 µM (inactive)
same,GI50,SF-268,19.6 µM (inactive)
same,GI50,SF-295,52.6 µM (inactive)
same,GI50,SF-539,15.2 µM (inactive)
same,GI50,SK-MEL-28,31 µM (inactive)
same,GI50,SK-MEL-2,20.9 µM (inactive)
same,GI50,SK-MEL-5,36.1 µM (inactive)
same,GI50,SK-OV-3,36.1 µM (inactive)
same,GI50,SN12C,19.4 µM (inactive)
same,GI50,SNB-19,19.9 µM (inactive)
same,GI50,SNB-75,17.5 µM (inactive)
same,GI50,SNB-78,24.2 µM (inactive)
same,GI50,SR,24.9 µM (inactive)
same,GI50,SW-620,35.7 µM (inactive)
same,GI50,TK-10,58.9 µM (inactive)
same,GI50,U-251,11.6 µM (inactive)
same,GI50,UACC-257,84.5 µM (inactive)
same,GI50,UACC-62,16.9 µM (inactive)
same,GI50,UO-31,32.1 µM (inactive)
N/N=C1\C(=O)N(c2ccc(Cl)cc2Cl)C(=O)C(=O)C1c1nc2ccccc2o1 (stereo not drawn),GI50,786-0,> 100 µM (inactive)
same,GI50,A498,> 100 µM (inactive)
same,GI50,A549,> 100 µM (inactive)
same,GI50,ACHN,> 100 µM (inactive)
same,GI50,CAKI-1,> 100 µM (inactive)
same,GI50,CCRF-CEM,57.5 µM (inactive)
same,GI50,COLO 205,> 100 µM (inactive)
same,GI50,DLD-1,> 100 µM (inactive)
same,GI50,DMS-114,> 100 µM (inactive)
same,GI50,DMS-273,> 100 µM (inactive)
same,GI50,EKVX,> 100 µM (inactive)
same,GI50,HCC 2998,> 100 µM (inactive)
same,GI50,HCT-116,> 100 µM (inactive)
same,GI50,HCT-15,> 100 µM
same,GI50,HL-60,> 100 µM (inactive)
same,GI50,HOP-18,> 100 µM (inactive)
same,GI50,HOP-62,> 100 µM (inactive)
same,GI50,HOP-92,> 100 µM (inactive)
same,GI50,HT-29,> 100 µM (inactive)
same,GI50,IGROV-1,> 100 µM (inactive)
same,GI50,K562,> 100 µM (inactive)
same,GI50,KM-20L2,> 100 µM (inactive)
same,GI50,KM12,> 100 µM (inactive)
same,GI50,LOX IMVI,97.7 µM (inactive)
same,GI50,LXFL 529,> 100 µM (inactive)
same,GI50,M14,> 100 µM (inactive)
same,GI50,M19-MEL,> 100 µM (inactive)
same,GI50,MOLT-4,> 100 µM (inactive)
same,GI50,Malme-3M,> 100 µM (inactive)
same,GI50,NCI-H226,> 100 µM (inactive)
same,GI50,NCI-H23,> 100 µM (inactive)
same,GI50,NCI-H460,> 100 µM (inactive)
same,GI50,NCI-H522,> 100 µM (inactive)
same,GI50,OVCAR-3,> 100 µM (inactive)
same,GI50,OVCAR-4,> 100 µM (inactive)
same,GI50,OVCAR-5,> 100 µM (inactive)
same,GI50,OVCAR-8,> 100 µM (inactive)
same,GI50,RPMI-8226,> 100 µM (inactive)
same,GI50,RXF 631,> 100 µM (inactive)
same,GI50,SF-268,> 100 µM (inactive)
same,GI50,SF-295,> 100 µM (inactive)
same,GI50,SF-539,> 100 µM (inactive)
same,GI50,SK-MEL-28,> 100 µM (inactive)
same,GI50,SK-MEL-2,95.7 µM (inactive)
same,GI50,SK-MEL-5,> 100 µM (inactive)
same,GI50,SK-OV-3,> 100 µM (inactive)
same,GI50,SN12C,> 100 µM (inactive)
same,GI50,SNB-19,> 100 µM (inactive)
same,GI50,SNB-75,> 100 µM (inactive)
same,GI50,SNB-78,> 100 µM (inactive)
same,GI50,SW-620,> 100 µM (inactive)
same,GI50,TK-10,> 100 µM (inactive)
same,GI50,U-251,> 100 µM (inactive)
same,GI50,UACC-257,> 100 µM (inactive)
same,GI50,UACC-62,11.4 µM (inactive)
same,GI50,UO-31,48.3 µM (inactive)
CCOP(=O)(C/C(O)=C1\C(=O)C(CCCNC(=O)OC(C)(C)C)N(Cc2ccc(OC)c(OC)c2)C1=O)OCC (stereo not drawn),GI50,786-0,> 100 µM (inactive)
same,GI50,A498,> 100 µM (inactive)
same,GI50,A549,> 100 µM (inactive)
same,GI50,ACHN,> 100 µM (inactive)
same,GI50,CCRF-CEM,> 100 µM (inactive)
same,GI50,COLO 205,> 100 µM (inactive)
same,GI50,DLD-1,> 100 µM (inactive)
same,GI50,DMS-114,> 100 µM (inactive)
same,GI50,DMS-273,> 100 µM (inactive)
same,GI50,EKVX,> 100 µM (inactive)
same,GI50,HCC 2998,> 100 µM (inactive)
same,GI50,HCT-116,> 100 µM (inactive)
same,GI50,HL-60,> 100 µM (inactive)
same,GI50,HOP-18,> 100 µM (inactive)
same,GI50,HOP-62,> 100 µM (inactive)
same,GI50,HT-29,> 100 µM (inactive)
same,GI50,IGROV-1,> 100 µM (inactive)
same,GI50,K562,> 100 µM (inactive)
same,GI50,KM-20L2,> 100 µM (inactive)
same,GI50,KM12,> 100 µM (inactive)
same,GI50,LOX IMVI,> 100 µM (inactive)
same,GI50,LXFL 529,> 100 µM (inactive)
same,GI50,M14,> 100 µM (inactive)
same,GI50,M19-MEL,> 100 µM (inactive)
same,GI50,MOLT-4,> 100 µM (inactive)
same,GI50,Malme-3M,> 100 µM (inactive)
same,GI50,NCI-H226,77.4 µM (inactive)
same,GI50,NCI-H23,> 100 µM (inactive)
same,GI50,NCI-H460,> 100 µM (inactive)
same,GI50,NCI-H522,2.59 µM (inactive)
same,GI50,OVCAR-3,> 100 µM (inactive)
same,GI50,OVCAR-4,> 100 µM (inactive)
same,GI50,OVCAR-5,> 100 µM (inactive)
same,GI50,OVCAR-8,> 100 µM (inactive)
same,GI50,RPMI-8226,> 100 µM (inactive)
same,GI50,RXF 393,> 100 µM (inactive)
same,GI50,RXF 631,> 100 µM (inactive)
same,GI50,SF-268,> 100 µM (inactive)
same,GI50,SF-295,> 100 µM (inactive)
same,GI50,SF-539,> 100 µM (inactive)
same,GI50,SK-MEL-28,> 100 µM (inactive)
same,GI50,SK-MEL-2,> 100 µM (inactive)
same,GI50,SK-MEL-5,> 100 µM (inactive)
same,GI50,SN12C,> 100 µM (inactive)
same,GI50,SNB-19,> 100 µM (inactive)
same,GI50,SNB-75,> 100 µM (inactive)
same,GI50,SR,> 100 µM (inactive)
same,GI50,SW-620,> 100 µM (inactive)
same,GI50,TK-10,> 100 µM (inactive)
same,GI50,U-251,> 100 µM (inactive)
same,GI50,UACC-257,> 100 µM (inactive)
same,GI50,UACC-62,> 100 µM (inactive)
same,GI50,UO-31,> 100 µM (inactive)
